Laboratory results: patent publication US20240360137A1 (Novartis AG, priority 2023, published 2024)
pIC50: −log10 of the molar value.

What was measured:
Test in all cases: CDKi biochemical assay (TR-FRET, phosphorylation of S780 on RB1 peptide)
[1] = target: CDK2/CyclinE1 (Homo sapiens, UniProt P24941); settings: CDK2/CyclinE1 100 pM, 1 mM ATP, 60 min at 25° C.
Summary of the method: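 CDK2/CyclinE1 (Avi-tag, 100 pM; CDK2 E. coli-expressed) phosphorylated His-MBP-RB1[773-924] (200 nM) at S780 with 1 mM ATP in HEPES pH 7.5/MgCl2/DTT, 60 min at 25° C. After EDTA quench, TR-FRET detection ran 3 h (Eu anti-p-RB S780, SA-APC). Apparent IC50 came from percent activity versus log concentration.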

[2] = target: CDK1/CyclinB1 (Homo sapiens, UniProt P06493); settings: CDK1/CyclinB1 10 pM, 1 mM ATP, 60 min at 25° C.
Summary of the method: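 CDK1/CyclinB1 (10 pM, Avi-tagged, insect-cell expressed) phosphorylated S780 of His-MBP-RB1[773-924] (200 nM) with 1 mM ATP in HEPES pH 7.5, 10 mM MgCl2, 1 mM DTT, 60 min at 25 °C. After EDTA quench, TR-FRET detection (Eu anti-pRB S780, SA-APC) for 3 h; apparent IC50 from percent activity versus log concentration.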

[3] = target: CDK4/cyclinD1 (Homo sapiens, UniProt P11802); settings: CDK4/cyclinD1 20 pM, 1 mM ATP, 60 min at 25° C.
Summary of the method: (§1)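 Avi-tagged, biotinylated CDK4/cyclinD1 (20 pM) or CDK6/cyclinD3 (10 pM) phosphorylates 200 nM His-MBP-RB1[773-924] at S780 with 1 mM ATP in HEPES pH 7.5/MgCl2, 60 min, 25° C. After EDTA quench, Eu anti-pRB(S780)/SA-APC TR-FRET is read after 3 h. Apparent IC50 comes from % activity versus log concentration.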

[4] = target: CDK6/cyclinD3 (Homo sapiens, UniProt Q00534); settings: CDK6/cyclinD3 10 pM, 1 mM ATP, 60 min at 25° C.
Summary of the method: as §1

Row | SMILES | pIC50 [1] | pIC50 [2] | pIC50 [3] | pIC50 [4]
1 | O=C1N([C@@H]2CCC[C@@H](O)C2)c2nc(Nc3c[nH]nc3OC[C@H]3COCCO3)ncc2C12CC2 [Example 66, 2′-((3-(((R)-1,4-dioxan-2-yl)methoxy)-1H-pyrazol-4-yl)amino)-7′-((1R,3R)-3-hydroxycyclohexyl)spiro[cyclopropane-1,5′-pyrrolo[2,3-d]pyrimidin]-6′(7′H)-one] | 7.29 | 5.37 | ≤ 5.00 | ≤ 5.00
2 | N#CC1(COc2n[nH]cc2Nc2ncc3c(n2)N([C@@H]2CCC[C@@H](O)C2)C(=O)C32CC2)CC1 [Example 67, 1-(((4-((7′-((1R,3R)-3-hydroxycyclohexyl)-6′-oxo-6′,7′-dihydrospiro[cyclopropane-1,5′-pyrrolo[2,3-d]pyrimidin]-2′-yl)amino)-1H-pyrazol-3-yl)oxy)methyl)cyclopropane-1-carbonitrile] | 7.64 | 5.38 | 5.16 | ≤ 5.00
3 | CSCc1n[nH]cc1Nc1ncc2c(n1)N([C@@H]1CCC[C@@H](O)C1)C(=O)C21CC1 [Example 68, 7′-((1R,3R)-3-hydroxycyclohexyl)-2′-((3-((methylthio)methyl)-1H-pyrazol-4-yl)amino)spiro[cyclopropane-1,5′-pyrrolo[2,3-d]pyrimidin]-6′(7′H)-one] | 8.15 | 6.01 | 5.38 | 5.12
4 | O=C1N([C@@H]2CCC[C@@H](O)C2)c2nc(Nc3c[nH]nc3O[C@@H]3CC3(F)F)ncc2C12CC2 [Example 70, 2′-((3-((R)-2,2-difluorocyclopropoxy)-1H-pyrazol-4-yl)amino)-7′-((1R,3R)-3-hydroxycyclohexyl)spiro[cyclopropane-1,5′-pyrrolo[2,3-d]pyrimidin]-6′(7′H)-one] | 8.22 | 6.09 | 5.11 | ≤ 5.00
5 | O=C1N([C@@H]2CCC[C@@H](O)C2)c2nc(Nc3c[nH]nc3OC[C@@H]3CCOC3)ncc2C12CC2 [Example 71, 7′-((1R,3R)-3-hydroxycyclohexyl)-2′-((3-(((R)-tetrahydrofuran-3-yl)methoxy)-1H-pyrazol-4-yl)amino)spiro[cyclopropane-1,5′-pyrrolo[2,3-d]pyrimidin]-6′(7′H)-one] | 7.36 | 5.12 | ≤ 5.00 | ≤ 5.00
6 | O=C1N([C@@H]2CCC[C@@H](O)C2)c2nc(Nc3c[nH]nc3OC3CCOCC3)ncc2C12CC2 [Example 74, 7′-((1R,3R)-3-hydroxycyclohexyl)-2′-((3-((tetrahydro-2H-pyran-4-yl)oxy)-1H-pyrazol-4-yl)amino)spiro[cyclopropane-1,5′-pyrrolo[2,3-d]pyrimidin]-6′(7′H)-one] | 6.59 | ≤ 5.00 | ≤ 5.00 | ≤ 5.00
7 | O=C1N([C@@H]2CCC[C@@H](O)C2)c2nc(Nc3c[nH]nc3O)ncc2C12CC2 [Example 77, 2′-((3-hydroxy-1H-pyrazol-4-yl)amino)-7′-((1R,3R)-3-hydroxycyclohexyl)spiro[cyclopropane-1,5′-pyrrolo[2,3-d]pyrimidin]-6′(7′H)-one] | 6.92 | 5.24 | 5.83 | 5.28
8 | O=C1N([C@@H]2CCC[C@@H](O)C2)c2nc(Nc3c[nH]nc3O[C@H]3CCOC3)ncc2C12CC2 [Example 78, 7′-((1R,3R)-3-hydroxycyclohexyl)-2′-((3-(((S)-tetrahydrofuran-3-yl)oxy)-1H-pyrazol-4-yl)amino)spiro[cyclopropane-1,5′-pyrrolo[2,3-d]pyrimidin]-6′(7′H)-one] | 7.77 | 5.60 | 5.59 | 5.45
9 | Cn1cc(-c2n[nH]cc2Nc2ncc3c(n2)N([C@@H]2CCC[C@@H](O)C2)C(=O)C32CC2)cn1 [Example 80, 7′-((1R,3R)-3-hydroxycyclohexyl)-2′-((1′-methyl-1H,1′H-[3,4′-bipyrazol]-4-yl)amino)spiro[cyclopropane-1,5′-pyrrolo[2,3-d]pyrimidin]-6′(7′H)-one] | 7.54 | 5.22 | 5.03 | ≤ 5.00
10 | O=C1N([C@@H]2CCC[C@@H](O)C2)c2nc(Nc3c[nH]nc3-c3cnn4cccnc34)ncc2C12CC2 [Example 81, 7′-((1R,3R)-3-hydroxycyclohexyl)-2′-((3-(pyrazolo[1,5-a]pyrimidin-3-yl)-1H-pyrazol-4-yl)amino)spiro[cyclopropane-1,5′-pyrrolo[2,3-d]pyrimidin]-6′(7′H)-one] | 8.22 | 6.39 | ≤ 5.00 | ≤ 5.00
11 | CO[C@H]1C[C@H](Oc2n[nH]cc2Nc2ncc3c(n2)N([C@@H]2CCC[C@@H](O)C2)C(=O)C32CC2)C1 [Example 82, 7′-((1R,3R)-3-hydroxycyclohexyl)-2′-((3-((1r,3R)-3-methoxycyclobutoxy)-1H-pyrazol-4-yl)amino)spiro[cyclopropane-1,5′-pyrrolo[2,3-d]pyrimidin]-6′(7′H)-one] | 7.59 | 5.60 | ≤ 5.00 | ≤ 5.00
12 | O=C1N([C@@H]2CCC[C@@H](O)C2)c2nc(Nc3c[nH]nc3-c3nnco3)ncc2C12CC2 [Example 83, 2′-((3-(1,3,4-oxadiazol-2-yl)-1H-pyrazol-4-yl)amino)-7′-((1R,3R)-3-hydroxycyclohexyl)spiro[cyclopropane-1,5′-pyrrolo[2,3-d]pyrimidin]-6′(7′H)-one] | 7.51 | 5.06 | 5.66 | 5.57

Further compounds by rising pIC50 [1], results first:

Row | pIC50 [1] | pIC50 [2] | pIC50 [3] | pIC50 [4] | SMILES
13 | 7.14 | 5.04 | ≤ 5.00 | ≤ 5.00 | O=C1N([C@@H]2CCC[C@@H](O)C2)c2nc(Nc3c[nH]nc3OC[C@H]3COC[C@H]3F)ncc2C12CC2 [Example 75, 2′-((3-((-4-fluorotetrahydrofuran-3-yl)methoxy)-1H-pyrazol-4-yl)amino)-7′-((1R,3R)-3-hydroxycyclohexyl)spiro[cyclopropane-1,5′-pyrrolo[2,3-d]pyrimidin]-6′(7′H)-one]
14 | 7.21 | 5.12 | ≤ 5.00 | ≤ 5.00 | O=C1N([C@@H]2CCC[C@@H](O)C2)c2nc(Nc3c[nH]nc3OC[C@H]3CCOC3)ncc2C12CC2 [Example 72, 7′-((1R,3R)-3-hydroxycyclohexyl)-2′-((3-(((S)-tetrahydrofuran-3-yl)methoxy)-1H-pyrazol-4-yl)amino)spiro[cyclopropane-1,5′-pyrrolo[2,3-d]pyrimidin]-6′(7′H)-one]
15 | 7.28 | 5.35 | 5.16 | ≤ 5.00 | C[C@]1(O)C[C@H](COc2n[nH]cc2Nc2ncc3c(n2)N([C@@H]2CCC[C@@H](O)C2)C(=O)C32CC2)C1 [Example 65, 2′-((3-(((1r,3R)-3-hydroxy-3-methylcyclobutyl)methoxy)-1H-pyrazol-4-yl)amino)-7′-((1R,3R)-3-hydroxycyclohexyl)spiro[cyclopropane-1,5′-pyrrolo[2,3-d]pyrimidin]-6′(7′H)-one]
16 | 7.30 | ≤ 5.00 | ≤ 5.00 | ≤ 5.00 | Cn1ccc(-c2n[nH]cc2Nc2ncc3c(n2)N([C@@H]2CCC[C@@H](O)C2)C(=O)C32CC2)n1 [Example 79, 7-((1R,3R)-3-hydroxycyclohexyl)-2′-((1′-methyl-1H,1′H-[3,3′-bipyrazol]-4-yl)amino)spiro[cyclopropane-1,5′-pyrrolo[2,3-d]pyrimidin]-6′(7′H)-one]
17 | 7.31 | ≤ 5.00 | ≤ 5.00 | ≤ 5.00 | O=C1N([C@@H]2CCC[C@@H](O)C2)c2nc(Nc3c[nH]nc3-c3cnn4c3CCCC4)ncc2C12CC2 [Example 73, 7′-((1R,3R)-3-hydroxycyclohexyl)-2′-((3-(4,5,6,7-tetrahydropyrazolo[1,5-a]pyridin-3-yl)-1H-pyrazol-4-yl)amino)spiro[cyclopropane-1,5′-pyrrolo[2,3-d]pyrimidin]-6′(7′H)-one]
18 | 7.49 | 5.48 | 5.14 | ≤ 5.00 | O=C1N([C@@H]2CCC[C@@H](O)C2)c2nc(Nc3c[nH]nc3OCC3COCC3(F)F)ncc2C12CC2 (stereo partly drawn) [Example 76, 2′-((3-((4,4-difluorotetrahydrofuran-3-yl)methoxy)-1H-pyrazol-4-yl)amino)-7′-((1R,3R)-3-hydroxycyclohexyl)spiro[cyclopropane-1,5′-pyrrolo[2,3-d]pyrimidin]-6′(7′H)-one]
19 | 8.22 | 6.10 | 5.58 | 5.22 | O=C1N([C@@H]2CCC[C@@H](O)C2)c2nc(Nc3c[nH]nc3O[C@H]3CC3(F)F)ncc2C12CC2 [Example 69]
